# Active and inactive are the calls of the source. The calls are words filed in the database; no cut-off is given here.
# Key:
# [1] = species on record: Rattus norvegicus; experiment: Effect on neuronal network in PTZ-induced epileptic seizures Sprague-Dawley rat model assessed as lowered PSD at delta wave band compound infused into hippocampal region and 10 mins later injected with PTZ and measured after 2 hrs by power spectral density analysis; format: functional, organism-based
# [2] = species on record: Rattus norvegicus; experiment: (§1) Neuroprotective activity in PTZ-induced epileptic seizure Sprague-Dawley rat model assessed as inhibition of hippocampal destruction by measuring increase in Nissl stained granular neurons in ipsilateral hippocampus DG region compound infused into hippocampal region and 10 mins later injected with PTZ and measured after 3 days by Nissl staining based microscopic analysis; format: functional, organism-based
# [3] = species on record: Rattus norvegicus; experiment: Effect on neuronal network in PTZ-induced epileptic seizures Sprague-Dawley rat model assessed as lowered PSD at gamma wave band compound infused into hippocampal region and 10 mins later injected with PTZ and measured after 2 hrs by power spectral density analysis; format: functional, organism-based
# [4] = species on record: Rattus norvegicus; experiment: as §1, with “pyramidal” for “granular”, “CA3” for “DG”; format: functional, organism-based
# [5] = species on record: Rattus norvegicus; experiment: Anticonvulsant activity against PTZ-induced epileptic seizure Sprague-Dawley rat model assessed as latency time of seizures compound infused into hippocampal region and 10 mins later injected with PTZ and measured for 2 hrs post PTZ-stimulation (reference value: 108.5 +/- 8.63 sec); format: functional
# [6] = biological target: T1, KCNMA1/KCNMB4 (Rattus norvegicus) (UniProt Q62976+Q9ESK8); experiment: Inhibition of BK alpha/beta-4 in PTZ-stimulated rat hippocampal pyramidal neurons assessed as slower decay of after hyperpolarization at 300 pA at -80mV holding potential measured after 10 mins by whole cell current clamp assay; format: protein-complex assay
# [7] = species on record: Rattus norvegicus; experiment: (§2) Inhibition of C-Fos expression in PTZ-induced epileptic seizures Sprague-Dawley rat model assessed as inhibition of FLI-positive granular neurons in DG region of ipsilateral hippocampus at 10 uM compound infused into hippocampal region and 10 mins later injected with PTZ and measured after 2 hrs by immunohistochemistry; format: functional, organism-based
# [8] = species on record: Rattus norvegicus; experiment: Effect on neuronal network in PTZ-induced epileptic seizures Sprague-Dawley rat model assessed as reduced total PSD frequency waves compound infused into hippocampal region and 10 mins later injected with PTZ and measured after 2 hrs by power spectral density analysis; format: functional, organism-based
# [9] = species on record: Rattus norvegicus; experiment: Anticonvulsant activity against PTZ-induced epileptic seizure Sprague-Dawley rat model assessed as reduction in mortality rate compound infused into hippocampal region and 10 mins later injected with PTZ and measured for 2 hrs post PTZ-stimulation; format: functional, organism-based
# [10] = species on record: Rattus norvegicus; experiment: Effect on neuronal network in PTZ-induced epileptic seizures Sprague-Dawley rat model assessed as lowered PSD at beta wave band compound infused into hippocampal region and 10 mins later injected with PTZ and measured after 2 hrs by power spectral density analysis; format: functional, organism-based
# [11] = species on record: Rattus norvegicus; experiment: as §2, with “pyramidal” for “granular”, “CA3” for “DG”, “contralateral” for “ipsilateral”; format: functional, organism-based
# [12] = biological target: T2, Calcium-activated potassium channel subunit beta-4 (Homo sapiens, UniProt Q86W47); experiment: Binding affinity to NT-495 fluorophore reagent labelled human BK beta4 (45 to 166 residues) incubated for 30 mins by microscale thermophoresis assay
# T2 sequence (Q86W47 whole entry): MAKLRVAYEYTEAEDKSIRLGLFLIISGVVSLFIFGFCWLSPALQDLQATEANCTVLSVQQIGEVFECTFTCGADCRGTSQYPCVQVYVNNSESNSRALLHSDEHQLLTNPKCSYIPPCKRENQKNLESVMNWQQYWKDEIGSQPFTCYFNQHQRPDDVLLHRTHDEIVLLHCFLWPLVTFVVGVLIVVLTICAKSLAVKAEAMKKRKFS
# [13] = species on record: Rattus norvegicus; experiment: as §1, with “pyramidal” for “granular”, “contralateral” for “ipsilateral”, “CA1” for “DG”; format: functional, organism-based
# [14] = species on record: Rattus norvegicus; experiment: as §2, with “contralateral” for “ipsilateral”; format: functional, organism-based
# [15] = species on record: Rattus norvegicus; experiment: Effect on neuronal network in PTZ-induced epileptic seizures Sprague-Dawley rat model assessed as lowered PSD at theta wave band compound infused into hippocampal region and 10 mins later injected with PTZ and measured after 2 hrs by power spectral density analysis; format: functional, organism-based
# [16] = species on record: Rattus norvegicus; experiment: Inhibition of field potential response in PTZ-induced epileptic seizure Sprague-Dawley rat model compound infused into hippocampal region and 10 mins later injected with PTZ and measured after 2 hrs by microarray electrode based analysis; format: functional, organism-based
# [17] = species on record: Rattus norvegicus; experiment: as §2, with “pyramidal” for “granular”, “CA3” for “DG”; format: functional, organism-based
# [18] = biological target: KCNMA1/KCNMB4 (Homo sapiens, UniProt Q12791+Q86W47); experiment: Inhibition of human BK alpha/beta4 channel expressed in HEK293T cells assessed as K+ outward current fraction at 10 uM at -80 mV holding potential by whole cell patch clamp method relative to control; format: cell-based
# [19] = species on record: Rattus norvegicus; experiment: Anticonvulsant activity against PTZ-induced epileptic seizure Sprague-Dawley rat model assessed as duration of seizure compound infused into hippocampal region and 10 mins later injected with PTZ and measured for 2 hrs post PTZ-stimulation (reference value: 376 +/- 76.43 sec); format: functional
# [20] = biological target: T1, KCNMA1/KCNMB4 (Rattus norvegicus); experiment: Inhibition of BK alpha/beta-4 in PTZ-stimulated rat hippocampal pyramidal neurons assessed as larger action potential width at 300 pA current injection at -80mV holding potential measured after 10 mins by whole cell current clamp assay; format: protein-complex assay
# [21] = species on record: Rattus norvegicus; experiment: Anticonvulsant activity against PTZ-induced epileptic seizures Sprague-Dawley rat model assessed as decrease in number of seizures at high stage (stage 4 and 5) compound infused into hippocampal region and 10 mins later injected with PTZ and measured for 2 hrs post-PTZ stimulation; format: functional, organism-based
# [22] = biological target: T1, KCNMA1/KCNMB4 (Rattus norvegicus); experiment: Inhibition of BK alpha/beta-4 in PTZ-stimulated rat hippocampal pyramidal neurons assessed as increase in AHP size at 300 pA at -80mV holding potential measured after 10 mins by whole cell current clamp assay; format: protein-complex assay
# [23] = species on record: Rattus norvegicus; experiment: Effect on neuronal network in PTZ-induced epileptic seizures Sprague-Dawley rat model assessed as lowered PSD at alpha wave band compound infused into hippocampal region and 10 mins later injected with PTZ and measured after 2 hrs by power spectral density analysis; format: functional, organism-based
# [24] = species on record: Rattus norvegicus; experiment: Anticonvulsant activity against PTZ-induced epileptic seizure Sprague-Dawley rat model assessed as mortality rate compound infused into hippocampal region and 10 mins later injected with PTZ and measured for 2 hrs post PTZ-stimulation (reference value: 33.33%); format: functional
# [25] = species on record: Rattus norvegicus; experiment: as §1, with “pyramidal” for “granular”, “contralateral” for “ipsilateral”, “CA3” for “DG”; format: functional, organism-based
# [26] = species on record: Rattus norvegicus; experiment: as §1, with “contralateral” for “ipsilateral”; format: functional, organism-based
inhibition [6],Ratio [18],inhibition [20],inhibition [22],Compound,Activity [1],Activity [3],Time [5],inhibition [7],inhibition [8],Activity [9],Activity [10],inhibition [11],Activity [13],inhibition [14],Activity [15],inhibition [17],Time [19],Activity [21],Activity [23],other results
inactive,0.74,Active,inactive,CC[C@H](C)[C@H](NC(=O)[C@H](CC(C)C)NC(=O)CNC(=O)[C@H](Cc1ccccc1)NC(=O)[C@H](CO)NC(=O)CN)C(=O)N[C@@H](CC(=O)O)C(=O)N[C@H](C(=O)N[C@@H](CCCCN)C(=O)N[C@H]1CSSC[C@@H]2NC(=O)[C@H](CCCCN)NC(=O)CNC(=O)[C@H](C)NC(=O)CNC(=O)[C@H](CO)NC(=O)CNC(=O)[C@H]([C@@H](C)O)NC(=O)[C@H](C(C)C)NC(=O)[C@H](CCCCN)NC(=O)[C@H](CCCCN)NC(=O)[C@@H]3CSSC[C@@H](C(=O)N[C@@H](Cc4ccc(O)cc4)C(=O)O)N[C@@H](CCCNC(=N)N)C(=O)[C@H](CSSC[C@H](NC(=O)[C@H](CCC(=O)O)NC(=O)[C@H](CO)NC(=O)[C@H](CO)NC(=O)[C@H](C)NC(=O)[C@H](Cc4ccccc4)NC1=O)C(=O)N[C@@H](Cc1c[nH]c4ccccc14)C(=O)N[C@@H]([C@@H](C)O)C(=O)N[C@@H](C)C(=O)N3)N[C@@H](CCC(N)=O)C(=O)NC(=O)[C@H](CC(N)=O)NC(=O)[C@H](CC(N)=O)NC(=O)[C@H](CCC(N)=O)NC2=O)C(C)C,inactive,inactive,219.5 to 266.5 s,inactive,inactive,inactive,inactive,inactive,inactive,inactive,inactive,inactive,316.66 to 353.33 s,inactive,inactive,Activity [2]: Active; Activity [4]: Active; Kd ([12]; read-out: Kd): 640 µM; inhibition [16]: inactive
–,–,–,–,CCCC(CCC)C(=O)O [VALPROIC ACID],–,–,156.63 s,–,–,–,–,–,–,–,–,–,181.25 s,–,–,mortality [24]: 0%
inactive,0.8,Active,inactive,CC[C@H](C)[C@H](NC(=O)[C@H](CC(C)C)NC(=O)CNC(=O)[C@H](Cc1ccccc1)NC(=O)[C@H](CO)NC(=O)CN)C(=O)N[C@@H](CC(=O)O)C(=O)N[C@H](C(=O)N[C@@H](CCCCN)C(=O)N[C@H]1CSSC[C@@H]2NC(=O)[C@H](CCCCN)NC(=O)CNC(=O)[C@H](CCC(N)=O)NC(=O)CNC(=O)[C@H](CO)NC(=O)CNC(=O)[C@H]([C@@H](C)O)NC(=O)[C@H](C(C)C)NC(=O)[C@H](CCC(=O)O)NC(=O)[C@H](CCCCN)NC(=O)[C@@H]3CSSC[C@@H](C(=O)N[C@@H](Cc4ccc(O)cc4)C(=O)O)N[C@@H](CCCNC(=N)N)C(=O)[C@H](CSSC[C@H](NC(=O)[C@H](CCC(=O)O)NC(=O)[C@H](CO)NC(=O)[C@H](CO)NC(=O)[C@H](C)NC(=O)[C@H](Cc4ccccc4)NC1=O)C(=O)N[C@@H](Cc1c[nH]c4ccccc14)C(=O)N[C@@H]([C@@H](C)O)C(=O)N[C@@H](C)C(=O)N3)N[C@@H](CCC(N)=O)C(=O)NC(=O)[C@H](CC(N)=O)NC(=O)[C@H](CC(N)=O)NC(=O)[C@H](CCC(N)=O)NC2=O)C(C)C,inactive,Active,219.5 to 266.5 s,inactive,inactive,inactive,inactive,inactive,inactive,inactive,inactive,inactive,316.66 to 353.33 s,inactive,inactive,Kd [12]: Not Active; Activity [25]: Active; Activity [26]: Active

# Source: ChEMBL document CHEMBL4354835, “Selective Blockade of Neuronal BK (α + β4) Channels Preventing Epileptic Seizure” (J Med Chem, 2020)
